Patent publication US6893659B2, “Pharmaceutical composition for oral administration of a N-piperidino-3- pyrazolecarboxamide derivative, its salts and their solvates” (Sanoti-Synthelabo, priority 1997, dated 2005)
≈ marks a conversion by molar mass, not a printed value. Counter-ions that a name gives are not always drawn.

Legend:
[1] = Instantaneous solubility of the compounds of formula (I) in aqueous media; format: physicochemical; conditions: for Solubility, dissolution medium Acetic buffer pH 7.5 / Solubility, dissolution medium Phosphate buffer pH 7.5 / Solubility, dissolution medium Water / Solubility, dissolution medium Water + 10% ethanol: instantaneous solubility, room temperature
Description: (§1) Furthermore, the hydrophobic character of the compounds of formula (I) is very strongly pronounced. […] These compounds are soluble in alcohols and glycols and more particularly in polyethylene glycols (PEG).
The solubilities of the compounds of formula (I) are measured in different aqueous media. The instantaneous solubility is evaluated at room temperature by quantitative analysis. The results, expressed in μg per ml, are collated in Table 1 below: […]

[2] = Solubility of compound A in solvents and after dilution of the solutions in water; format: physicochemical; conditions: for solubility: organic solvent or mixture
Description: as §1
However, when the solutions obtained with an alcohol or a glycol are diluted in an aqueous medium, the compound of formula (I) precipitates because of its strongly hydrophobic character.
Measurements were also made of the solubility of compound A in different solvents (Table 2) and after dilution in water of the solutions formed (Table 3).

[3] = Wettability by H. Mohamad's method; format: physicochemical
Source text: as §1
The wettability of compound A was studied in different formulations using the method of H. Mohamad et al., Labo Pharma. Problèmes techniques, 1984, 32 (346), 284-289.

[4] = Kinetics of dissolution in a gastric medium; format: physicochemical; conditions: 40 mg in one liter, phosphate-citrate buffer pH 3, 37° C., no surfactant
Description: The kinetics of dissolution of different formulations in a gastric medium were studied at 37° C. in a phosphate-citrate buffer of pH 3 for 30 minutes. […]
6 tests were carried out for each formulation and the amount of compound A dissolved in the medium was measured every 5 minutes.
Table 7 indicates the mean value of the percentage of compound A dissolved and the standard deviation relative to this value for the different formulations described in Table 6.

[5] = Intestinal transepithelial passage across Caco-2 monolayer; format: in vitro ADME; conditions: human, Caco-2; introduced in Hank's medium pH 6.5, in solution in DMSO; apical to basal; read-out: Coefficient of permeability P
Description: (§2) The permeability of the epithelium of the compounds is evaluated using the Caco-2 cell line, which has the characteristic of undergoing differentiation in vitro to form an epithelial monolayer (Crit. Rev. Ther. Drug Carrier System, 1991, 8 (4), 105-330). In this model the permeability of compound A dissolved in dimethyl sulfoxide (DMSO) is high, showing that it has a good ability to be absorbed by the intestine when it is in solution.
(§3) Caco-2 cells are cultured onto microporous polycarbonate filters covered with collagen. The cellular monolayer formed on the filter then makes it possible to separate an apical compartment (imitating the intestinal lumen) from a basal compartment (imitating the blood circulation).
(§4) The composition containing the compound to be studied is placed on the apical side and the passage of this compound, dispersed or solubilized in Hank's medium, through this cellular barrier is evaluated by measuring the kinetics of its appearance on the basal side. This aqueous medium, of pH 6.5, has the following composition: NaCl=8.0 g/l; KCl=0.4 g/l; CaCl2=0.19 g/l; MgCl2=0.1 g/l; MgSO4=0.1 g/l; Na2HPO4=0.09 g/l; KH2PO4=0.06 g/l; NaHCO3=0.35 g/l; glucose=1 g/l; phenol red=0.01 g/l.
(§5) The coefficient of permeability P, in cm/s, is then determined; this characterizes the rate of passage of the molecule through the membrane, namely: P=(da/dt).(1/A.Co) • where: • da/dt=variation of the amount of test compound passing through the cellular monolayer as a function of time (mol/s) • A=surface area of the monolayer (cm^2) • Co=initial concentration of the test compound (mol/l)

Caco-2 cells = experiment: as above; format: in vitro ADME
Description: as §2, §3, §4, §5

[6] = ethanol solution, dilution in water 10%
[7] = polyethylene glycol 400 solution, dilution in water 30%

SMILES | Solubility, dissolution medium Acetic buffer pH 7.5 [1] [μg per ml] | Solubility, dissolution medium Phosphate buffer pH 7.5 [1] [μg per ml] | Solubility, dissolution medium Water ([1]; water) [μg per ml] | Solubility, dissolution medium Water + 10% ethanol [1] [μg per ml] | further results
Cc1c(C(=O)NN2CCCCC2)nn(-c2ccc(Cl)cc2Cl)c1-c1ccc(Cl)cc1 [Hydrochloride (solvated)] | 54 | 0.5 | 37 | 10 | 
Cc1c(C(=O)NN2CCCCC2)nn(-c2ccc(Cl)cc2Cl)c1-c1ccc(Cl)cc1 [Hydrogensulfate] | 30 | 0.9 | 13 | 38 | 
Cc1c(C(=O)NN2CCCCC2)nn(-c2ccc(Cl)cc2Cl)c1-c1ccc(Cl)cc1 [Methanesulfonate (solvated)] |  |  | 39 | 48 | 
Cc1c(C(=O)NN2CCCCC2)nn(-c2ccc(Cl)cc2Cl)c1-c1ccc(Cl)cc1 [Paratoluenesulfonate] | 2.4 | 0.2 | 3.9 | 7.3 | 
Cc1c(C(=O)NN2CCCCC2)nn(-c2ccc(Cl)cc2Cl)c1-c1ccc(Cl)cc1 [Phosphate] | 0.9 | 0.7 | 1.3 | 7.5 | 
Cc1c(C(=O)NN2CCCCC2)nn(-c2ccc(Cl)cc2Cl)c1-c1ccc(Cl)cc1 [Solvated compound A] | 1.2 |  | 0.7 | 0.9 | 
Cc1c(C(=O)NN2CCCCC2)nn(-c2ccc(Cl)cc2Cl)c1-c1ccc(Cl)cc1 [compound A, N-Piperidino-5-(4-chlorophenyl)-1-(2,4-dichlorophenyl)-4-methylpyrazole-3-carboxamide] |  |  |  |  | Solubility, dissolution medium Water + 10% ethanol ([1]; listed as Compound A (base)): 1.2 μg per ml; Solubility in water (in words) ([1]; water, irrespective of the pH): practically insoluble; Amount of compound A dissolved, measured [2, 6]: 1.2.10^−3 mg/ml; Amount of compound A dissolved, theoretical [2, 6]: 3.5 mg/mL; solubility ([2]; solvent Ethanol): 35 mg/mL (≈ 75.5 mM); solubility ([2]; solvent Polyethylene glycol 400): 50 mg/mL (≈ 108 mM); Amount of compound A dissolved, measured [2, 7]: 3 µg/mL; Amount of compound A dissolved, theoretical [2, 7]: 15 mg/mL; Dilution in water ([2]; solution in polyethylene glycol 1500 at 60° C.): not dilutable; Solubility of compound A ([2]; solvent Polyethylene glycol 1500 at 60° C.): 80 mg/g; Wettability in water (in words) [3]: not wettable; Dissolution in the dissolution medium with nothing else added [4]: no dissolution takes place; Papp A→B [5]: 9.6 ×10⁻⁶ cm/s; Relative rate of passage (Caco-2 cells; Caco-2 monolayer, Hank's medium pH 6.5, relative to compound A in suspension in Hank's medium (=1)): 1; Permeability / ability to pass through the epithelium (in words) (Caco-2 cells; compound dissolved in DMSO): very good ability and high
